Test results as given in patent publication US7576226B2, “Process of making isomers of norelgestromin and methods using the same” (priority 2003, dated 2009).
In brackets after ≈: the same amount, converted by molar mass.

How the values were obtained:
[1] = Equilibrium solubility in distilled water (UV spectrophotometry); format: physicochemical; conditions: thermodynamic from solid, room temperature
Experimental: The determination of equilibrium solubility of E and Z isomers of norelgestromin was carried out in distilled water. 20 mg of norelgestromin was added to 20 mL of distilled water at room temperature. The suspension was stirred continuously and samples were withdrawn from time to time. The samples were filtered, and the norelgestromin content of the filtrates was determined by a spectrophotometrical method measuring UV absorption. The spectrophotometrical measurements were performed on a VARIAN Cary 3E spectrophotometer at room temperature.

[2] = Lipophilicity by isocratic reversed-phase HPLC (k′, CHI); format: physicochemical; conditions: for Polarity (k′, HPLC): Nova-Pak C18, acetonitrile mobile phase, 25° C.; for Polarity (CHI index, HPLC): acetonitrile concentration of the mobile phase where log k′=0
Experimental: Lipophilicity was determined by an HPLC method. The HPLC measurements were performed on a Thermo Separation Product (SpectraSystem P4000 and SpectraFOCUS Forward Optical Scanning Detector) HPLC instrument. Data were analyzed by ChromQuest (ver. 2.51) software.
For reversed-phase HPLC measurements, a Nova-Pak C18 column was used (dimension of 4 μm×4.6 mm×250 mm: Waters, Ireland). Detection was performed at λ=280 nm and 25° C. The flow rate of the mobile phase was 1.0 mL/min. HPLC gradient grade acetonitrile was used as organic component (Merck KGaA., Darmstadt, Germany). The retention data of the two isomers were obtained by isocratical analysis of the mobile phases containing different amounts of acetonitrile. The void time (t0) was determined by injection of methanol.
Samples were dissolved in a 1:1 mixture of acetonitrile:water in a concentration of 1 mg/4 mL. The log k′ values were calculated from the mean retention time measured after two subsequent injections of 10 μL volume (log k′=log((tR−t0)/t0)). The log k′ values were represented as a function of the concentration of acetonitrile.
The chromatographical hydrophobicity index (CHI) is a measure of the lipophilic character of the compounds in the reversed phase HPLC measurements. By definition, the CHI parameter is that concentration of acetonitrile of the mobile phase where log k′=0.

[3] = Metabolic stability and clearance in human liver microsomes; format: in vitro ADME; conditions: human liver microsomes 1 mg/mL, 5 μM isomer, mean of 3 parallel measurements; for Metabolic stability: F% (metabolic bioavailability)
Experimental: The metabolic stability of norelgestromin E and Z isomers was examined in human liver microsomes. The 2.5 mL incubation mixture contained 6 mM of Na-pyrophosphate, 5 mM of MgCl2, 5 mM of glucose-6-phosphate, 1 U/mL of glucose 6-phosphate dehydrogenase, human liver microsomes (1 mg/mL) and 5 μM of norelgestromin E or Z isomers. The pH was adjusted with 100 mM of Tris-HCl buffer to pH 7.4. The reaction was started by the addition of 5 mM of NADPH. 0.5 mL samples were taken at 0.5 and 20 minutes with immediate precipitation by 0.5 mL of ice-cold methanol. 1 mL precipitated samples were centrifuged for 30 min at 1200 g, and 10 μL of supernatant was injected into the HPLC.
Analytical measurements were conducted using a Merck-Hitachi HPLC system, with UV monitoring at 244 nm. Unchanged material was measured and intrinsic clearance (Clint) and metabolic bioavailability (F%) was calculated with the following equations: dc/dt/c0=Clint, (mL/min×g protein), where dc/dt is the concentration change in a given period of time and c0 is the initial concentration of the norelgestromin isomer (measured in the 0 min sample). Additionally, Clint1×45=Clint2 (mL/min×g liver) and EH=Clin2/Clint2+HBF, where EH is hepatic extraction and HBF is the hepatic blood flow. Finally the metabolic stability: […]
For statistical analysis, Student's t-test was used (Microsoft Excel). The results summarized in Table 2 are calculated as a mean of 3 parallel measurements.

[4] = test system: Caco-2 human adenocarcinoma (epithelial) cell line monolayers; experiment: Caco-2 permeability measurement; format: in vitro ADME; conditions: Caco-2 monolayer, luminal to basolateral, 50 μM
Experimental: Drug absorption studies were performed with Caco-2 human adenocarcinoma (epithelial) cell line monolayers as an in vitro model. Passive flux characteristics of drugs across the Caco-2 monolayer have shown a correlation with human oral bioavailability.
Caco-2 cells obtained from American Type Culture collection, Rockville, Md., (ATCC) were grown at 37° C. in an atmosphere of 5% CO2 in Dulbecco's modified eagle medium supplemented with 10% heat inactivated fetal bovine serum (GIBCOBRL 11360-039) and antibiotics: penicillin 100 U/mL, and streptomycin 100 μg/mL (GIBCOBRL 15140-031).
Confluent cell monolayers grown in an incubator (at 37° C. with 5% CO2/[…] and 95% humidity) were subcultured every seven days by treatment with 0.25% trypsin containing 1 mM EDTA.
19-23-day-old confluent monolayers of fully differentiated Caco-2 cells were used for transport studies after 6-10 passages.
EHS Cell Attachment Matrix (Promega G5971), Minimum Essential medium Eagle (MEM) with Earle salts, L-Glutamine (GIBCOBRL 41500-091) and Transwell Polycarbonate Membrane (Costar 3401) were used.
Coated Transwells with EHS Cell Attachment Matrix (Promega G5971) and 200000-500000 Caco-2 cells are applied/inserted. […]
The concentrations of the isomers were determined by liquid chromatography with ultraviolet (HPLC/UV) analysis. […]
Dim.: 125−3 mm.+guard. […] Peak quantitation: height; calculation method: EXT-STD.

[5] = CHI of six steroids (structure-absorption experiment); format: physicochemical; conditions: chromatographical hydrophobicity index, isocratical conditions
Experimental: The beneficial effect of the increasing lipophilicity for the transdermal absorption was proven by carrying out a structure-absorption experiment with six different steroids. In the following publications: Int. J. Pharm. 217:1 (2001), and J. Chromatography 49:631 (1993), it has been shown that the chromatographical hydrophobicity index (CHI) measured under isocratical conditions is a reliable descriptor of lipophilicity. The CHI values of the investigated steroids were determined according to these experiments (Table 3) and correlated with the measured stratum corneum/water distribution coefficients.

SMILES: C#C[C@]1(O)CC[C@H]2[C@@H]3CCC4=C/C(=N/O)CC[C@@H]4[C@H]3CC[C@@]21CC (single isomer, unassigned; isomer d) [E-isomer, d-(17α)-13-ethyl-17-hydroxy-18,19-dinorpregn-4-ene-20-yn-3-one-(3E)-oxime]
- solubility [1]: 3.8 µg/mL (≈ 11.6 µM)
- Polarity (k′, HPLC) [2]: 1.02
- Polarity (CHI index, HPLC) [2]: 74
- Metabolic stability [3]: 86.7 ± 1.67
- Metabolic clearance (mL/min g liver) [3]: 0.1815 ± 0.026 mL/min g liver
- Concentration on the abluminal side (μM in the 30th min) [4]: 1.27 ± 0.56 µM

SMILES: C#C[C@]1(O)CC[C@H]2[C@@H]3CCC4=C/C(=N\O)CC[C@@H]4[C@H]3CC[C@@]21CC (single isomer, unassigned; isomer d) [Z-isomer, d-(17α)-13-ethyl-17-hydroxy-18,19-dinorpregn-4-ene-20-yn-3-one-(3Z)-oxime]
- solubility [1]: 12.1 µg/mL (≈ 37 µM)
- Polarity (k′, HPLC) [2]: 1.46
- Polarity (CHI index, HPLC) [2]: 70
- Metabolic stability [3]: 91.9 ± 1.52
- Metabolic clearance (mL/min g liver) [3]: 0.1042 ± 0.021 mL/min g liver
- Concentration on the abluminal side (μM in the 30th min) [4]: 1.98 ± 0.78 µM

SMILES: C[C@]12CCC(=O)C=C1CC[C@@H]1[C@@H]2CC[C@@]2(C)[C@H]1CC[C@]2(O)C(=O)CO [Cortexolone]
- CHI [5]: 54.87

SMILES: C[C@]12CC[C@@H]3c4ccc(O)cc4CC[C@H]3[C@@H]1C[C@@H](O)[C@@H]2O [Estriol]
- CHI [5]: 40.45

SMILES: C[C@]12CCC(=O)C=C1CC[C@@H]1[C@@H]2[C@@H](O)C[C@@]2(C)[C@H]1CC[C@]2(O)C(=O)CO [Hydrocortisone]
- CHI [5]: 33.8

SMILES: CC(=O)[C@H]1CC[C@H]2[C@@H]3CC=C4C[C@@H](O)CC[C@]4(C)[C@H]3CC[C@]12C [Pregnenolone]
- CHI [5]: 95.36

SMILES: C[C@]12CC[C@H]3[C@@H](CCC4=CC(=O)CC[C@@]43C)[C@@H]1CC[C@@H]2O [Testosterone]
- CHI [5]: 75.87
